In patent US8344181B2, “N-2 adamantanyl-2-phenoxy-acetamide derivatives as 11-beta hydroxysteroid dehydrogenase inhibitors” (Janssen Pharmaceutica N.V., priority 2004, dated 2013):

How the values were obtained:
11β-HSD1 = molecular target: T1, 11β-HSD1 (Mus musculus, UniProt P50172); assay: Cellular assay of 11β-HSD1 activity in differentiated 3T3-L1 cells; type: cell-based; conditions: 4 hour pre-incubation, 10^-5M to 10^-10M, read-out: HSD1 cellular 3T3-L1 Score
T1 construct: endogenous in cells; host or cells: 3T3-L1 (ATCC-CL-173), differentiated into adipocytes
Experimental: The effects on 11β-HSD1 activity was measured in differentiated 3T3-L1 cells and rat hepatocytes.
Mouse fibroblast 3T3-L1 cells (ATCC-CL-173) were seeded at a density of 16500 cells/ml in 12 well plates and grown for 7 days in DMEM medium (supplemented with 10% heat inactivated foetal calf serum, 2 mM glutamine and 25 mg gentamycin) at 37° C. in a humidified 5% CO2 atmosphere. Medium was refreshed twice a week. Fibroblasts were differentiated into adipocytes at 37° C. in a 5% CO2 humidified atmosphere in growth medium containing 2 μg/ml insulin, 55 μg/ml IBMX and 39.2 μg/ml dexamethasone.
Primary hepatocytes from male rats were seeded on normal Falcon 12 well plates at a density of 250000 cells/well and incubated for 16 hours at 37° C. in a 5% CO2 humidified atmosphere in DMEM-HAM's F12 medium containing 5% Nu-serum, 100 U/ml penicillin, 100 μg/ml streptomycin, 0.25 μg/ml amphotericin B, 50 μg/ml gentamycin sulfate, 5 μg/ml insulin and 392 ng/ml dexamethasone. Following a 4 hour pre-incubation with test compound, 0.5 μCi ^3H-cortisone or dehydrocorticosterone, was added to the 3T3-L1 cultures. One hour later, the medium was extracted on Extrelut^3-columns with 15 ml diethyl ether and the extract was analysed by HPLC as described above. The effects of JNJ-compounds on rat hepatocyte HSD1 activity was measured after an incubation period of 90 minutes with 0.5 μCi^3H-dehydrocorticosterone. Corticosterone formation was analysed by HPLC.
(§1) As for the enzymatic assays, the compounds to be tested were taken from a stock solution and tested at a final concentration ranging from 10^−5M to 10^−10M. From the thus obtained dose response curves, the pIC50 value was calculated and scored as follows; Score 1=pIC50 value<5, Score 2=pIC50 value in the range of 5 to 6, Score 3=pIC50 value>6. (in this table NT stands for Not Tested).

11β-HSD2 = molecular target: T2, 11β-HSD2 (Homo sapiens, UniProt P80365); assay: Cellular assay of 11β-HSD2 activity in HepG2 cells; type: cell-based; conditions: 4 hour pre-incubation, 10^-5M to 10^-10M, read-out: HSD2 cellular HepG2 Score
T2 construct: endogenous in cells; host or cells: HepG2 (ATCC HB-8065)
T2 sequence (P80365 1-405): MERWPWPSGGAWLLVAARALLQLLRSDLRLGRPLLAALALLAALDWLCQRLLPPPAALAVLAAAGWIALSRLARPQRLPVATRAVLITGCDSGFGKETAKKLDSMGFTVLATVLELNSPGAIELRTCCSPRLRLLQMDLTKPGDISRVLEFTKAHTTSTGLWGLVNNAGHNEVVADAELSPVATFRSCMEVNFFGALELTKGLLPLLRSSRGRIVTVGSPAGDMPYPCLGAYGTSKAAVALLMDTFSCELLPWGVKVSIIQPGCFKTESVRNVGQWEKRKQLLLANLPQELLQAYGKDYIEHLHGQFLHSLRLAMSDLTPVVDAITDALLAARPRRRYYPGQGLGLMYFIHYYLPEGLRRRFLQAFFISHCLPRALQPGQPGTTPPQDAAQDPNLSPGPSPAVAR
Experimental: The effects on 11β-HSD2 activity was studied in HepG2 and LCC-PK1-cells HepG2-cells (ATCC HB-8065) were seeded in 12 well plates at a density of 100,000 cells/ml and grown at 37° C. in a humidified 5% CO2 atmosphere in MEM-Rega-3 medium supplemented with 10% heat inactivated foetal calf serum, 2 mM L-glutamine and sodium bicarbonate). Medium was refreshed twice a week.
Following a 4 hour pre-incubation with test compound, 0.5 μCi ^3H-cortisol or corticosterone, was added to the cultures. One hour later, the medium was extracted on Extrelut^3-columns with 15 ml diethyl ether and the extract was analysed by HPLC as described above.
as §1

T1 sequence (P50172 whole entry): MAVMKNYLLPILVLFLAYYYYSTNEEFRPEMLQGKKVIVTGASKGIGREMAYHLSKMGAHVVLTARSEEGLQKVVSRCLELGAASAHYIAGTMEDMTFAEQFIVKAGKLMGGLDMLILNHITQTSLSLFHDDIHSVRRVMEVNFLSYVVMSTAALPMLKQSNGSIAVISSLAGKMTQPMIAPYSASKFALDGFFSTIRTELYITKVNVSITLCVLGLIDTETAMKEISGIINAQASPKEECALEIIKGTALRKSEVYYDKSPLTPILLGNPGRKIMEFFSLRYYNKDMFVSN

Work on `CCS(=O)(=O)N[C@@]12CC3C[C@H](C1)[C@H](NC(=O)C(C)(C)Oc1cccc(C(F)(F)F)c1)[C@@H](C3)C2` [Compound 87] yielded an IC50 (11β-HSD1) of under 1000 nM and an IC50 (11β-HSD2) of 1000 to 10000 nM.
In the case of `CCC(=O)N[C@@]12CC3C[C@H](C1)[C@H](NC(=O)C(C)(C)Oc1ccc(Cl)cc1C)[C@@H](C3)C2` [Compound 63], the IC50 (11β-HSD1) is reported as under 1000 nM and the IC50 (11β-HSD2) is reported as under 1000 nM.
`Cc1cc(Cl)ccc1OC(C)(C)C(=O)N[C@H]1[C@@H]2CC3C[C@H]1C[C@](C(=O)O)(C3)C2` [Compound 50] gave an IC50 (11β-HSD1) of under 1000 nM and an IC50 (11β-HSD2) of 1000 to 10000 nM.
Work on `CC(C)(Oc1cccc(C(F)(F)F)c1)C(=O)N[C@H]1[C@@H]2CC3C[C@H]1C[C@](O)(C3)C2` [Compound 20] yielded an IC50 (11β-HSD1) of under 1000 nM and an IC50 (11β-HSD2) of under 1000 nM.
`Cc1cc(Cl)ccc1OC(C)(C)C(=O)N[C@H]1[C@@H]2CC3C[C@H]1C[C@](NC(=O)CN(C)C)(C3)C2` [Compound 72] gave an IC50 (11β-HSD1) of under 1000 nM and an IC50 (11β-HSD2) of 1000 to 10000 nM.
`Cc1ccc(S(=O)(=O)N[C@@]23CC4C[C@H](C2)[C@H](NC(=O)C(C)(C)Oc2cccc(C(F)(F)F)c2)[C@@H](C4)C3)cc1` [Compound 89] showed an IC50 (11β-HSD1) of under 1000 nM and an IC50 (11β-HSD2) of over 10000 nM.
`CC(=O)N[C@@]12CC3C[C@H](C1)[C@H](NC(=O)C(C)(C)Nc1ccc(Br)cc1C)[C@@H](C3)C2` [Compound 74] was tested, and the IC50 (11β-HSD1) was under 1000 nM and the IC50 (11β-HSD2) was 1000 to 10000 nM.
For `CC(=O)Nc1cccc(OC(C)(C)C(=O)N[C@H]2[C@@H]3CC4C[C@H]2C[C@](O)(C4)C3)c1` [Compound 19], the IC50 (11β-HSD1) was under 1000 nM and the IC50 (11β-HSD2) was under 1000 nM.
Work on `CC(C)(Nc1cccc(C(F)(F)F)c1)C(=O)N[C@H]1[C@@H]2CC3C[C@H]1C[C@](O)(C3)C2` [Compound 60] yielded an IC50 (11β-HSD1) of under 1000 nM and an IC50 (11β-HSD2) of over 10000 nM.
